Measurements taken from patent US8633167B2, “Method for the protection of trees” (Syngenta Crop Protection LLC, priority 2006, dated 2014).

System: Ips engravers beetles
Test: Bolt study (Example 1): Ips attack and gallery construction on loblolly pine bolts cut after trunk injection
Type: in vivo
Details: for reduction of length of egg galleries compared to check trees / reduction of total number of egg galleries compared to check trees: May
Description: The intent of the study was to evaluate the efficacy of systemic injections of emamectin benzoate in reducing success of pine bark beetle attacks on loblolly pine and determine the duration of treatment efficacy. As SPB populations were extremely low in Texas in 2004, Ips engravers beetles were used as indicator species.
Two 20-year-old, recently thinned loblolly pine plantations were selected on land owned by Temple-Inland Forest Products Corporation about 5 km south of Wells (Angelina County), Tex. Trees in one plantation were injected for use in a bolt study (Example 1). Trees in a 0.2 ha section of the second plantation were injected as part of a single-tree protection study (Example 2). A staging area also was set up in the second plantation where bolts from the first plantation were exposed to bark beetles and wood borers.
Seventy-five loblolly pine trees, Pinus taeda L., 15-20 cm diameter at breast height (DBH), were selected in March 2004. Each treatment was injected into four cardinal points about 0.3 m above the ground on each of 15 trees in April (16th-23rd) using the new Arborjet Tree IV™ microinfusion system (Arborjet, Inc. Woburn, Mass.). The treatments included: • 1) Emamectin benzoate (Denim®, 1.92% ai, Syngenta Crop Science)—Denim® was mixed 1:1 with methanol and applied at 18.6 ml solution per inch of tree diameter at breast height (DBH) (=0.2 g active per inch DBH). • 2) Check (untreated)
After 1 (May 24), 3 (July 19) and 5 (September) months post-injection, 5 trees of each treatment were felled and two 1.5 m long bolts were removed from the 3 m and 8 m heights of the bole. The bolts were transported to a nearby plantation that was recently thinned and contained fresh slash material. Each bolt was placed about 1 m apart on discarded, dry pine bolts to maximize surface area available for colonization as well as to discourage predation by ground and litter-inhabiting organisms. To facilitate timely bark beetle colonization, packets of bark beetle pheromones (racemic ipsdienol + lanerione combination, ipsenol or cis-verbenol; Phero Tech, Inc., Delta, BC, Canada) were attached separately to three 1 m stakes evenly spaced in the study area. Racemic ipsdienol and cis-verbenol were used with the second and third series of bolts deployed in July and September, respectively. The packets were removed after 2 weeks when signs of attacks (boring dust) were observed on most test bolts, signaling that naturally-produced pheromones were present.
A clear panel of acetate (10 cm wide by 25 cm long) was attached to the center of each bolt after deployment of bolts to monitor arrival of bark beetles. The top surface of each panel was coated entirely with Stikem Special® trapping compound (Michel and Pelton, Emeryville, Calif.). The traps were left in place for two weeks.
Each series of bolts were retrieved about 3 weeks after deployment, after observing many cerambycid egg niches on the bark surface of most bolts. There was concern that if cerambycid larvae were allowed to develop too long, their feeding activity would obscure or obliterate the Ips galleries. Thus, each series of bolts were retrieved and stored temporarily in a TFS seedling cooler (˜45° F.) to slow cerambycid development until the bolts could be evaluated.
In the laboratory, two 10×50 cm strips (total=1000 cm^2) of bark were removed from each bolt. […]

[1] = 1 Month Post-Injection (May), bolt height 3 m
[2] = 1 Month Post-Injection (May), bolt height 8 m
[3] = 3 Months Post-Injection (July), bolt height 3 m
[4] = 3 Months Post-Injection (July), bolt height 8 m
[5] = 5 Months Post-Injection (September), bolt height 3 m
[6] = 5 Months Post-Injection (September), bolt height 8 m

4″-deoxy-4″-N-methylamino avermectin B1a/B1b [Emamectin]
Length of Egg Galleries Total Length [1]: 30.7 a cm | Length of Egg Galleries With Brood % Total [1]: 49.5% | Length of Egg Galleries With Brood cm [1]: 15.2 a cm | Length of Egg Galleries Without Brood % Total [1]: 50.5% | Length of Egg Galleries Without Brood cm [1]: 15.5 a cm | Mean # of Ips caught/Trap [1]: 3.8 a | Mean # of Nuptial Chambers Without Egg Galleries No. [1]: 14.6 c | Mean # of Nuptial Chambers Without Egg Galleries Total [1]: 78.5 | Mean # of Nuptial Chambers with Egg Galleries No. [1]: 4.0 a | Mean # of Nuptial Chambers with Egg Galleries Total [1]: 21.5 | Mean Total # of Nuptial Chambers [1]: 18.6 a | Number of Egg Galleries Total Galleries [1]: 12.4 a | Number of Egg Galleries With Brood % Total [1]: 19.4% | Number of Egg Galleries With Brood No. [1]: 2.4 a | Number of Egg Galleries Without Brood % Total [1]: 80.6% | Number of Egg Galleries Without Brood No. [1]: 10.0 a | Length of Egg Galleries Total Length [2]: 13.5 a cm | Length of Egg Galleries With Brood % Total [2]: 8.9% | Length of Egg Galleries With Brood cm [2]: 1.2 a cm | Length of Egg Galleries Without Brood % Total [2]: 91.1% | Length of Egg Galleries Without Brood cm [2]: 12.3 a cm | Mean # of Ips caught/Trap [2]: 4.8 a | Mean # of Nuptial Chambers Without Egg Galleries No. [2]: 9.0 c | Mean # of Nuptial Chambers Without Egg Galleries Total [2]: 69.2 | Mean # of Nuptial Chambers with Egg Galleries No. [2]: 4.0 a | Mean # of Nuptial Chambers with Egg Galleries Total [2]: 30.8 | Mean Total # of Nuptial Chambers [2]: 13.0 ab | Number of Egg Galleries Total Galleries [2]: 4.2 a | Number of Egg Galleries With Brood % Total [2]: 4.8% | Number of Egg Galleries With Brood No. [2]: 0.2 a | Number of Egg Galleries Without Brood % Total [2]: 95.2% | Number of Egg Galleries Without Brood No. [2]: 4.0 a | Length of Egg Galleries Total Length [3]: 0.0 a cm | Length of Egg Galleries With Brood cm [3]: 0.0 a cm | Length of Egg Galleries Without Brood cm [3]: 0.0 a cm | Mean # of Ips caught/Trap [3]: 1.8 a | Mean # of Nuptial Chambers Without Egg Galleries No. [3]: 11.0 b | Mean # of Nuptial Chambers Without Egg Galleries Total [3]: 100.0 | Mean # of Nuptial Chambers with Egg Galleries No. [3]: 0.0 a | Mean # of Nuptial Chambers with Egg Galleries Total [3]: 0.0 | Mean Total # of Nuptial Chambers [3]: 11.0 ab | Number of Egg Galleries Total Galleries [3]: 0.0 a | Number of Egg Galleries With Brood No. [3]: 0.0 a | Number of Egg Galleries Without Brood No. [3]: 0.0 a | Length of Egg Galleries Total Length [4]: 0.0 a cm | Length of Egg Galleries With Brood cm [4]: 0.0 a cm | Length of Egg Galleries Without Brood cm [4]: 0.0 a cm | Mean # of Ips caught/Trap [4]: 3.4 a | Mean # of Nuptial Chambers Without Egg Galleries No. [4]: 8.4 c | Mean # of Nuptial Chambers Without Egg Galleries Total [4]: 100.0 | Mean # of Nuptial Chambers with Egg Galleries No. [4]: 0.0 a | Mean # of Nuptial Chambers with Egg Galleries Total [4]: 0.0 | Mean Total # of Nuptial Chambers [4]: 8.4 b | Number of Egg Galleries Total Galleries [4]: 0.0 a | Number of Egg Galleries With Brood No. [4]: 0.0 a | Number of Egg Galleries Without Brood No. [4]: 0.0 a | Length of Egg Galleries Total Length [5]: 0.0 a cm | Length of Egg Galleries With Brood cm [5]: 0.0 a cm | Length of Egg Galleries Without Brood cm [5]: 0.0 a cm | Mean # of Ips caught/Trap [5]: 1.2 a | Mean # of Nuptial Chambers Without Egg Galleries No. [5]: 3.8 b | Mean # of Nuptial Chambers Without Egg Galleries Total [5]: 100.0 | Mean # of Nuptial Chambers with Egg Galleries No. [5]: 0.0 a | Mean # of Nuptial Chambers with Egg Galleries Total [5]: 0.0 | Mean Total # of Nuptial Chambers [5]: 3.8 a | Number of Egg Galleries Total Galleries [5]: 0.0 a | Number of Egg Galleries With Brood No. [5]: 0.0 a | Number of Egg Galleries Without Brood No. [5]: 0.0 a | Length of Egg Galleries Total Length [6]: 0.0 a cm | Length of Egg Galleries With Brood cm [6]: 0.0 a cm | Length of Egg Galleries Without Brood cm [6]: 0.0 a cm | Mean # of Ips caught/Trap [6]: 0.4 a | Mean # of Nuptial Chambers Without Egg Galleries No. [6]: 4.4 b | Mean # of Nuptial Chambers Without Egg Galleries Total [6]: 100.0 | Mean # of Nuptial Chambers with Egg Galleries No. [6]: 0.0 a | Mean # of Nuptial Chambers with Egg Galleries Total [6]: 0.0 | Mean Total # of Nuptial Chambers [6]: 4.4 a | Number of Egg Galleries Total Galleries [6]: 0.0 a | Number of Egg Galleries With Brood No. [6]: 0.0 a | Number of Egg Galleries Without Brood No. [6]: 0.0 a | construction of egg galleries (July and September, all bolts): completely prevented | attacks unsuccessful (July and September, both heights): 100% | reduction of length of egg galleries compared to check trees (3 m): 94% | reduction of total number of egg galleries compared to check trees (3 m): 81% | reduction of length of egg galleries compared to check trees (8 m): 99% | reduction of total number of egg galleries compared to check trees (8 m): 96% | attacks unsuccessful (bolts evaluated in May, 3 m height): 79% | attacks unsuccessful (bolts evaluated in May, 8 m height): 69% | preventing successful attacks by Ips bark beetles and cerambycids (both examples, one, three and five months after injection): highly effective
